{
  "source": "PubChem BioAssay AID1963963",
  "about": "(Molecular Pharmacology Branch, DTP, NCI, 2024)",
  "test_system": "958667-338-R-J2-PDC tumor spheroids viability",
  "assay": "Anticancer human tumor 958667-338-R-J2-PDC patient-derived colon adenocarcinoma cell line growth inhibition [PI3K]",
  "settings": "spheroids with HUVEC and MSC; for pIC50: curve of first compound; for viability, T/C: stronger effect = lower value",
  "in_short": "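We assembled tumor spheroids that included a stromal compartment of HUVEC and MSCs, then exposed them to targeted agents alone and together with PI3K pathway inhibitors. Concentration series descended by half-log from clinically achievable Cmax levels. Viability served as the endpoint.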",
  "key": {"[1]": {"settings": "second compound 0.0316 µM, first compound 0.0316 µM"}, "[2]": {"settings": "second compound 0.0316 µM, first compound 0.1 µM"}, "[3]": {"settings": "second compound 0.0316 µM, first compound 0.316 µM"}, "[4]": {"settings": "second compound 0.0316 µM, first compound 1 µM"}, "[5]": {"settings": "second compound 0.0316 µM, first compound 3.16 µM"}, "[6]": {"settings": "second compound 0.0316 µM, first compound 10 µM"}, "[7]": {"settings": "second compound 0.1 µM, first compound 0.0316 µM"}, "[8]": {"settings": "second compound 0.1 µM, first compound 0.1 µM"}, "[9]": {"settings": "second compound 0.1 µM, first compound 0.316 µM"}, "[10]": {"settings": "second compound 0.1 µM, first compound 1 µM"}, "[11]": {"settings": "second compound 0.1 µM, first compound 3.16 µM"}, "[12]": {"settings": "second compound 0.1 µM, first compound 10 µM"}, "[13]": {"settings": "second compound 0.316 µM, first compound 0.0316 µM"}, "[14]": {"settings": "second compound 0.316 µM, first compound 0.1 µM"}, "[15]": {"settings": "second compound 0.316 µM, first compound 0.316 µM"}, "[16]": {"settings": "second compound 0.316 µM, first compound 1 µM"}, "[17]": {"settings": "second compound 0.316 µM, first compound 3.16 µM"}, "[18]": {"settings": "second compound 0.316 µM, first compound 10 µM"}, "[19]": {"settings": "second compound 1 µM, first compound 0.0316 µM"}, "[20]": {"settings": "second compound 1 µM, first compound 0.1 µM"}, "[21]": {"settings": "second compound 1 µM, first compound 0.316 µM"}, "[22]": {"settings": "second compound 1 µM, first compound 1 µM"}, "[23]": {"settings": "second compound 1 µM, first compound 3.16 µM"}, "[24]": {"settings": "second compound 1 µM, first compound 10 µM"}, "[25]": {"settings": "second compound 3.16 µM, first compound 0.0316 µM"}, "[26]": {"settings": "second compound 3.16 µM, first compound 0.1 µM"}, "[27]": {"settings": "second compound 3.16 µM, first compound 0.316 µM"}, "[28]": {"settings": "second compound 3.16 µM, first compound 1 µM"}, "[29]": {"settings": "second compound 3.16 µM, first compound 3.16 µM"}, "[30]": {"settings": "second compound 3.16 µM, first compound 10 µM"}, "[31]": {"settings": "second compound 10 µM, first compound 0.0316 µM"}, "[32]": {"settings": "second compound 10 µM, first compound 0.1 µM"}, "[33]": {"settings": "second compound 10 µM, first compound 0.316 µM"}, "[34]": {"settings": "second compound 10 µM, first compound 1 µM"}, "[35]": {"settings": "second compound 10 µM, first compound 3.16 µM"}, "[36]": {"settings": "second compound 10 µM, first compound 10 µM"}},
  "note": "pIC50: −log10 of the molar value.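 Note: spheroids exposed to compounds for seven days before readout.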",
  "data": [
    {"smiles": "CC(Cn1ccc(-c2ccc(C#N)c(Cl)c2)n1)NC(=O)c1cc(C(C)O)[nH]n1", "note": "(centres undefined) + CC(Nc1ncnc2nc[nH]c12)c1cc2cccc(Cl)c2c(=O)n1-c1ccccc1", "values": [
      {"measurement": "pIC50", "setting": "second compound 0.0316 µM", "value": "< 5.00"},
      {"measurement": "pIC50", "setting": "second compound 0.1 µM", "value": "< 5.00"},
      {"measurement": "pIC50", "setting": "second compound 0.316 µM", "value": "< 5.00"},
      {"measurement": "pIC50", "setting": "second compound 1 µM", "value": "< 5.00"},
      {"measurement": "pIC50", "setting": "second compound 3.16 µM", "value": "< 5.00"},
      {"measurement": "pIC50", "setting": "second compound 10 µM", "value": "< 5.00"},
      {"measurement": "viability, T/C", "setting": "[1]", "value": 85.4, "unit": "%"},
      {"measurement": "viability, T/C", "setting": "[2]", "value": 105, "unit": "%"},
      {"measurement": "viability, T/C", "setting": "[3]", "value": 85.5, "unit": "%"},
      {"measurement": "viability, T/C", "setting": "[4]", "value": 106, "unit": "%"},
      {"measurement": "viability, T/C", "setting": "[5]", "value": 114, "unit": "%"},
      {"measurement": "viability, T/C", "setting": "[6]", "value": 86.5, "unit": "%"},
      {"measurement": "viability, T/C", "setting": "[7]", "value": 100, "unit": "%"},
      {"measurement": "viability, T/C", "setting": "[8]", "value": 97.5, "unit": "%"},
      {"measurement": "viability, T/C", "setting": "[9]", "value": 99.9, "unit": "%"},
      {"measurement": "viability, T/C", "setting": "[10]", "value": 99.2, "unit": "%"},
      {"measurement": "viability, T/C", "setting": "[11]", "value": 99.4, "unit": "%"},
      {"measurement": "viability, T/C", "setting": "[12]", "value": 79.1, "unit": "%"},
      {"measurement": "viability, T/C", "setting": "[13]", "value": 90.7, "unit": "%"},
      {"measurement": "viability, T/C", "setting": "[14]", "value": 109, "unit": "%"},
      {"measurement": "viability, T/C", "setting": "[15]", "value": 121, "unit": "%"},
      {"measurement": "viability, T/C", "setting": "[16]", "value": 108, "unit": "%"},
      {"measurement": "viability, T/C", "setting": "[17]", "value": 85.8, "unit": "%"},
      {"measurement": "viability, T/C", "setting": "[18]", "value": 109, "unit": "%"},
      {"measurement": "viability, T/C", "setting": "[19]", "value": 119, "unit": "%"},
      {"measurement": "viability, T/C", "setting": "[20]", "value": 115, "unit": "%"},
      {"measurement": "viability, T/C", "setting": "[21]", "value": 99.8, "unit": "%"},
      {"measurement": "viability, T/C", "setting": "[22]", "value": 112, "unit": "%"},
      {"measurement": "viability, T/C", "setting": "[23]", "value": 101, "unit": "%"},
      {"measurement": "viability, T/C", "setting": "[24]", "value": 73.7, "unit": "%"},
      {"measurement": "viability, T/C", "setting": "[25]", "value": 107, "unit": "%"},
      {"measurement": "viability, T/C", "setting": "[26]", "value": 105, "unit": "%"},
      {"measurement": "viability, T/C", "setting": "[27]", "value": 121, "unit": "%"},
      {"measurement": "viability, T/C", "setting": "[28]", "value": 82.8, "unit": "%"},
      {"measurement": "viability, T/C", "setting": "[29]", "value": 101, "unit": "%"},
      {"measurement": "viability, T/C", "setting": "[30]", "value": 98.5, "unit": "%"},
      {"measurement": "viability, T/C", "setting": "[31]", "value": 77.2, "unit": "%"},
      {"measurement": "viability, T/C", "setting": "[32]", "value": 98.7, "unit": "%"},
      {"measurement": "viability, T/C", "setting": "[33]", "value": 86.7, "unit": "%"},
      {"measurement": "viability, T/C", "setting": "[34]", "value": 84.1, "unit": "%"},
      {"measurement": "viability, T/C", "setting": "[35]", "value": 91.9, "unit": "%"},
      {"measurement": "viability, T/C", "setting": "[36]", "value": 97.7, "unit": "%"}
    ]},
    {"smiles": "Cn1ncc(Cl)c1-c1cc(C(=O)NC(CN)Cc2cccc(F)c2)sc1Cl", "note": "(centres undefined) + CC(Nc1ncnc2nc[nH]c12)c1cc2cccc(Cl)c2c(=O)n1-c1ccccc1", "values": [
      {"measurement": "pIC50", "setting": "second compound 0.0316 µM", "value": "< 5.00"},
      {"measurement": "pIC50", "setting": "second compound 0.1 µM", "value": 5.36},
      {"measurement": "pIC50", "setting": "second compound 0.316 µM", "value": 5.86},
      {"measurement": "pIC50", "setting": "second compound 1 µM", "value": 5.49},
      {"measurement": "pIC50", "setting": "second compound 3.16 µM", "value": 5.44},
      {"measurement": "pIC50", "setting": "second compound 10 µM", "value": 5.74},
      {"measurement": "viability, T/C", "setting": "[1]", "value": 87.7, "unit": "%"},
      {"measurement": "viability, T/C", "setting": "[2]", "value": 87.1, "unit": "%"},
      {"measurement": "viability, T/C", "setting": "[3]", "value": 100, "unit": "%"},
      {"measurement": "viability, T/C", "setting": "[4]", "value": 60.6, "unit": "%"},
      {"measurement": "viability, T/C", "setting": "[5]", "value": 60.5, "unit": "%"},
      {"measurement": "viability, T/C", "setting": "[6]", "value": 43.4, "unit": "%"},
      {"measurement": "viability, T/C", "setting": "[7]", "value": 111, "unit": "%"},
      {"measurement": "viability, T/C", "setting": "[8]", "value": 81.1, "unit": "%"},
      {"measurement": "viability, T/C", "setting": "[9]", "value": 84.7, "unit": "%"},
      {"measurement": "viability, T/C", "setting": "[10]", "value": 64.1, "unit": "%"},
      {"measurement": "viability, T/C", "setting": "[11]", "value": 59, "unit": "%"},
      {"measurement": "viability, T/C", "setting": "[12]", "value": 37.5, "unit": "%"},
      {"measurement": "viability, T/C", "setting": "[13]", "value": 93.7, "unit": "%"},
      {"measurement": "viability, T/C", "setting": "[14]", "value": 89.9, "unit": "%"},
      {"measurement": "viability, T/C", "setting": "[15]", "value": 82.1, "unit": "%"},
      {"measurement": "viability, T/C", "setting": "[16]", "value": 50.7, "unit": "%"},
      {"measurement": "viability, T/C", "setting": "[17]", "value": 52.2, "unit": "%"},
      {"measurement": "viability, T/C", "setting": "[18]", "value": 37.2, "unit": "%"},
      {"measurement": "viability, T/C", "setting": "[19]", "value": 95.6, "unit": "%"},
      {"measurement": "viability, T/C", "setting": "[20]", "value": 87.3, "unit": "%"},
      {"measurement": "viability, T/C", "setting": "[21]", "value": 97.1, "unit": "%"},
      {"measurement": "viability, T/C", "setting": "[22]", "value": 75.9, "unit": "%"},
      {"measurement": "viability, T/C", "setting": "[23]", "value": 51.4, "unit": "%"},
      {"measurement": "viability, T/C", "setting": "[24]", "value": 39.4, "unit": "%"},
      {"measurement": "viability, T/C", "setting": "[25]", "value": 88.4, "unit": "%"},
      {"measurement": "viability, T/C", "setting": "[26]", "value": 89.1, "unit": "%"},
      {"measurement": "viability, T/C", "setting": "[27]", "value": 85.8, "unit": "%"},
      {"measurement": "viability, T/C", "setting": "[28]", "value": 79.7, "unit": "%"},
      {"measurement": "viability, T/C", "setting": "[29]", "value": 52.1, "unit": "%"},
      {"measurement": "viability, T/C", "setting": "[30]", "value": 32.6, "unit": "%"},
      {"measurement": "viability, T/C", "setting": "[31]", "value": 82.3, "unit": "%"},
      {"measurement": "viability, T/C", "setting": "[32]", "value": 82.3, "unit": "%"},
      {"measurement": "viability, T/C", "setting": "[33]", "value": 65.9, "unit": "%"},
      {"measurement": "viability, T/C", "setting": "[34]", "value": 59.4, "unit": "%"},
      {"measurement": "viability, T/C", "setting": "[35]", "value": 42.9, "unit": "%"},
      {"measurement": "viability, T/C", "setting": "[36]", "value": 28.2, "unit": "%"}
    ]}
  ]
}
